Results on 16 compounds are retold here after the NIST ThermoML archive (doi:10.1021/je034265f).

The series is described as follows: activity coefficient (dimensionless); of the first substance listed, at infinite dilution; xn = mol fraction of the nth substance listed. To be noted: Liquid, x1 = 0.

± gives the expanded uncertainty stated by the source.

With `C/C=C/C` [(E)-2-butene] + CCC(C)O, the activity coefficient runs as follows: (249.97 K) 3.7 ± 0.1; (269.99 K) 3.6 ± 0.1; (290 K) 3.5 ± 0.1; (310 K) 3.3 ± 0.1; (330 K) 3.1 ± 0.1.

Turning to `C=CCC` [1-butene] + CCCCO, the activity coefficient was determined as 3.5 ± 0.1 (250.01 K); 3.4 ± 0.1 (270 K); 3.4 ± 0.1 (290.01 K); 3.3 ± 0.1 (310 K); 3.2 ± 0.1 (330 K).

With `CCCC` [butane] + CCC(C)O, the activity coefficient by setting is: (249.96 K) 4.2 ± 0.1; (270 K) 4.1 ± 0.1; (290 K) 4 ± 0.1; (310 K) 3.9 ± 0.1; (330 K) 3.6 ± 0.1.

On to `C=C(C)C` [2-methylpropene] + CCC(C)O, for which the activity coefficient runs as follows: (249.99 K) 3.7 ± 0.1; (270 K) 3.5 ± 0.1; (290 K) 3.4 ± 0.1; (310 K) 3.2 ± 0.1; (330 K) 3 ± 0.1.

Turning to `CCC` [propane] + CCCCO, the activity coefficient (250.01 K) amounted to 3.6 ± 0.1; the activity coefficient (270 K) stood at 3.6 ± 0.1; the activity coefficient (290.01 K) was determined as 3.6 ± 0.1; the activity coefficient (310 K) worked out at 3.6 ± 0.1; the activity coefficient (330 K) is 3.6 ± 0.1.

Regarding `CC(C)C` [2-methylpropane] + CCCCO, the activity coefficient reads like this: (250.01 K) 4.4 ± 0.1; (270.04 K) 4.4 ± 0.1; (290.01 K) 4.3 ± 0.1; (310.01 K) 4.3 ± 0.1; (330 K) 4.1 ± 0.1.

For the compound `C=CC` [propene] + CCC(C)O, the activity coefficient reads like this: (249.97 K) 3.1 ± 0.1; (269.99 K) 3.1 ± 0.1; (290 K) 3.1 ± 0.1; (310 K) 3 ± 0.1; (330 K) 2.8 ± 0.1.

For the compound `CCCC` [butane] + CCCCO, the activity coefficient reads like this: (250.01 K) 4.1 ± 0.1; (270.04 K) 4.1 ± 0.1; (290.01 K) 4.1 ± 0.1; (310.01 K) 4 ± 0.1; (330 K) 3.9 ± 0.1.

On to `CC(C)C` [2-methylpropane] + CCC(C)O, for which the activity coefficient (249.97 K) is 4.4 ± 0.1; the activity coefficient (270 K) stood at 4.3 ± 0.1; the activity coefficient (290 K) was determined as 4.2 ± 0.1; the activity coefficient (310 K) stood at 4.1 ± 0.1; the activity coefficient (330 K) is 3.8 ± 0.1.

Turning to `C=CC=C` [1,3-butadiene] + CCC(C)O, the activity coefficient (249.99 K) amounted to 3.5 ± 0.1; the activity coefficient (270 K) worked out at 3.4 ± 0.1; the activity coefficient (290 K) was determined as 3.2 ± 0.1; the activity coefficient (310 K) is 3 ± 0.1; the activity coefficient (330 K) stood at 2.8 ± 0.1.

Turning to `C=CCC` [1-butene] + CCC(C)O, the activity coefficient is 3.7 ± 0.1 (249.97 K); 3.6 ± 0.1 (269.99 K); 3.5 ± 0.1 (290 K); 3.3 ± 0.1 (310 K); 3.1 ± 0.1 (330 K).

For `C/C=C/C` [(E)-2-butene] + CCCCO, the activity coefficient is, setting by setting: (250.01 K) 3.4 ± 0.1; (270 K) 3.4 ± 0.1; (290.01 K) 3.4 ± 0.1; (310 K) 3.3 ± 0.1; (330 K) 3.3 ± 0.1.

As for `C=CC=C` [1,3-butadiene] + CCCCO, the activity coefficient is 3 ± 0.1 (250.01 K); 2.9 ± 0.1 (270.04 K); 2.9 ± 0.1 (290.01 K); 2.9 ± 0.1 (310.01 K); 2.8 ± 0.1 (330 K).

With `C=CC` [propene] + CCCCO, the activity coefficient runs as follows: (249.99 K) 3 ± 0.1; (270 K) 3 ± 0.1; (290.01 K) 3 ± 0.1; (310 K) 3 ± 0.1; (330 K) 3 ± 0.1.

With `CCC` [propane] + CCC(C)O, the activity coefficient is, setting by setting: (249.97 K) 3.6 ± 0.1; (269.99 K) 3.5 ± 0.1; (290 K) 3.5 ± 0.1; (310 K) 3.5 ± 0.1; (330 K) 3.3 ± 0.1.

For `C=C(C)C` [2-methylpropene] + CCCCO, the activity coefficient (250.01 K) is 3.4 ± 0.1; the activity coefficient (270.04 K) was found to be 3.4 ± 0.1; the activity coefficient (290.01 K) was 3.4 ± 0.1; the activity coefficient (310.01 K) amounted to 3.3 ± 0.1; the activity coefficient (330 K) amounted to 3.2 ± 0.1.
